Reference: PubChem BioAssay AID2060494 (Molecular Pharmacology Branch, DTP, NCI, 2025)
One block for each molecule: values may come before it.

Test system: 435261-313-R-J1-PDC complex spheroid viability
Experiment: Anticancer human tumor 435261-313-R-J1-PDC patient-derived colon adenocarcinoma cell line growth inhibition [GQUAD]
Settings: for IC50: curve of first compound; for viability, T/C: stronger effect = lower value
Outline: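 Multi-cell-type spheroids of tumor cells with HUVEC and mesenchymal stem cells, treated with drug combinations. Concentrations descend in half-log steps from near clinical Cmax, or from 10 microM where Cmax is unknown; viability read-out.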

[1] = second compound 0.0316 µM, first compound 0.0316 µM
[2] = second compound 0.0316 µM, first compound 0.1 µM
[3] = second compound 0.0316 µM, first compound 0.316 µM
[4] = second compound 0.0316 µM, first compound 1 µM
[5] = second compound 0.0316 µM, first compound 3.16 µM
[6] = second compound 0.0316 µM, first compound 10 µM
[7] = second compound 0.1 µM, first compound 0.0316 µM
[8] = second compound 0.1 µM, first compound 0.1 µM
[9] = second compound 0.1 µM, first compound 0.316 µM
[10] = second compound 0.1 µM, first compound 1 µM
[11] = second compound 0.1 µM, first compound 3.16 µM
[12] = second compound 0.1 µM, first compound 10 µM
[13] = second compound 0.316 µM, first compound 0.0316 µM
[14] = second compound 0.316 µM, first compound 0.1 µM
[15] = second compound 0.316 µM, first compound 0.316 µM
[16] = second compound 0.316 µM, first compound 1 µM
[17] = second compound 0.316 µM, first compound 3.16 µM
[18] = second compound 0.316 µM, first compound 10 µM
[19] = second compound 1 µM, first compound 0.0316 µM
[20] = second compound 1 µM, first compound 0.1 µM
[21] = second compound 1 µM, first compound 0.316 µM
[22] = second compound 1 µM, first compound 1 µM
[23] = second compound 1 µM, first compound 3.16 µM
[24] = second compound 1 µM, first compound 10 µM
[25] = second compound 3.16 µM, first compound 0.0316 µM
[26] = second compound 3.16 µM, first compound 0.1 µM
[27] = second compound 3.16 µM, first compound 0.316 µM
[28] = second compound 3.16 µM, first compound 1 µM
[29] = second compound 3.16 µM, first compound 3.16 µM
[30] = second compound 3.16 µM, first compound 10 µM
[31] = second compound 10 µM, first compound 0.0316 µM
[32] = second compound 10 µM, first compound 0.1 µM
[33] = second compound 10 µM, first compound 0.316 µM
[34] = second compound 10 µM, first compound 1 µM
[35] = second compound 10 µM, first compound 3.16 µM
[36] = second compound 10 µM, first compound 10 µM
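Also: spheroids exposed to the agents for seven days before readout.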
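For viability, T/C in this document: percent of vehicle control viability with DMSO wells as 100%.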

IC50 (second compound 0.0316 µM): 1840 nM
IC50 (second compound 0.1 µM): 341 nM
IC50 (second compound 0.316 µM): 448 nM
IC50 (second compound 1 µM): < 31.6 nM
IC50 (second compound 3.16 µM): < 31.6 nM
IC50 (second compound 10 µM): < 31.6 nM
SMILES: C#Cc1c(F)ccc2cc(O)cc(-c3ncc4c(N5CC6CCC(C5)N6)nc(OCC56CCCN5CC(F)C6)nc4c3F)c12 (stereo not drawn) + Cc1cnc(CNC(=O)c2c(=O)c3ccc(N4CCCN(C)CC4)nc3n3c2sc2ccccc23)cn1
viability, T/C [1]: 74.5%
viability, T/C [2]: 61%
viability, T/C [3]: 71.5%
viability, T/C [4]: 50.5%
viability, T/C [5]: 45.9%
viability, T/C [6]: 34.7%
viability, T/C [7]: 59.5%
viability, T/C [8]: 62.2%
viability, T/C [9]: 49.8%
viability, T/C [10]: 36.6%
viability, T/C [11]: 43.1%
viability, T/C [12]: 29.6%
viability, T/C [13]: 53%
viability, T/C [14]: 59.6%
viability, T/C [15]: 55.4%
viability, T/C [16]: 37.8%
viability, T/C [17]: 34.8%
viability, T/C [18]: 30.5%
viability, T/C [19]: 37.4%
viability, T/C [20]: 34.4%
viability, T/C [21]: 34.1%
viability, T/C [22]: 34.3%
viability, T/C [23]: 30%
viability, T/C [24]: 17.1%
viability, T/C [25]: 0.16%
viability, T/C [26]: 6.4%
viability, T/C [27]: 0.17%
viability, T/C [28]: 6.39%
viability, T/C [29]: 0.17%
viability, T/C [30]: 0.15%
viability, T/C [31]: 0.12%
viability, T/C [32]: 0.14%
viability, T/C [33]: 0.16%
viability, T/C [34]: 0.16%
viability, T/C [35]: 0.22%
viability, T/C [36]: 0.18%

IC50 (second compound 0.0316 µM): > 10000 nM
IC50 (second compound 0.1 µM): 266 nM
IC50 (second compound 0.316 µM): 2250 nM
IC50 (second compound 1 µM): < 31.6 nM
IC50 (second compound 3.16 µM): < 31.6 nM
IC50 (second compound 10 µM): < 31.6 nM
SMILES: C=CCn1c(=O)c2cnc(Nc3ccc(N4CCN(C)CC4)cc3)nc2n1-c1cccc(C(C)(C)O)n1 + Cc1cnc(CNC(=O)c2c(=O)c3ccc(N4CCCN(C)CC4)nc3n3c2sc2ccccc23)cn1
viability, T/C [1]: 67.6%
viability, T/C [2]: 59.2%
viability, T/C [3]: 59.4%
viability, T/C [4]: 57%
viability, T/C [5]: 52.7%
viability, T/C [6]: 51.3%
viability, T/C [7]: 61.3%
viability, T/C [8]: 56.1%
viability, T/C [9]: 44.4%
viability, T/C [10]: 47.8%
viability, T/C [11]: 54.4%
viability, T/C [12]: 42.4%
viability, T/C [13]: 54%
viability, T/C [14]: 59.2%
viability, T/C [15]: 49.9%
viability, T/C [16]: 52.9%
viability, T/C [17]: 49.6%
viability, T/C [18]: 36.8%
viability, T/C [19]: 34.9%
viability, T/C [20]: 39.6%
viability, T/C [21]: 36.2%
viability, T/C [22]: 39.1%
viability, T/C [23]: 41.2%
viability, T/C [24]: 30.5%
viability, T/C [25]: 14%
viability, T/C [26]: 4.69%
viability, T/C [27]: 8.48%
viability, T/C [28]: 4.99%
viability, T/C [29]: 5.92%
viability, T/C [30]: 0.17%
viability, T/C [31]: 0.17%
viability, T/C [32]: 0.17%
viability, T/C [33]: 0.19%
viability, T/C [34]: 0.16%
viability, T/C [35]: 0.19%
viability, T/C [36]: 0.15%

IC50 (second compound 0.0316 µM): 825 nM
IC50 (second compound 0.1 µM): > 10000 nM
IC50 (second compound 0.316 µM): 5200 nM
IC50 (second compound 1 µM): < 31.6 nM
IC50 (second compound 3.16 µM): < 31.6 nM
IC50 (second compound 10 µM): < 31.6 nM
SMILES: CC(=O)O[C@H]1C(=O)[C@@]2(C)[C@H]([C@H](OC(=O)c3ccccc3)[C@]3(O)C[C@H](OC(=O)[C@H](O)[C@@H](NC(=O)c4ccccc4)c4ccccc4)C(C)=C1C3(C)C)[C@]1(OC(C)=O)CO[C@@H]1C[C@@H]2O + Cc1cnc(CNC(=O)c2c(=O)c3ccc(N4CCCN(C)CC4)nc3n3c2sc2ccccc23)cn1
viability, T/C [1]: 66.7%
viability, T/C [2]: 58.1%
viability, T/C [3]: 56.9%
viability, T/C [4]: 40.8%
viability, T/C [5]: 54.3%
viability, T/C [6]: 48.4%
viability, T/C [7]: 54.5%
viability, T/C [8]: 54%
viability, T/C [9]: 51.5%
viability, T/C [10]: 45.1%
viability, T/C [11]: 57.3%
viability, T/C [12]: 53.6%
viability, T/C [13]: 56.8%
viability, T/C [14]: 55.1%
viability, T/C [15]: 52.7%
viability, T/C [16]: 52.9%
viability, T/C [17]: 53.4%
viability, T/C [18]: 46.8%
viability, T/C [19]: 40.3%
viability, T/C [20]: 41.5%
viability, T/C [21]: 42.3%
viability, T/C [22]: 42.9%
viability, T/C [23]: 45.6%
viability, T/C [24]: 34%
viability, T/C [25]: 10.4%
viability, T/C [26]: 4.44%
viability, T/C [27]: 6.35%
viability, T/C [28]: 12.5%
viability, T/C [29]: 11.3%
viability, T/C [30]: 7.23%
viability, T/C [31]: 0.12%
viability, T/C [32]: 0.16%
viability, T/C [33]: 0.15%
viability, T/C [34]: 0.17%
viability, T/C [35]: 0.2%
viability, T/C [36]: 0.16%

IC50 (second compound 0.0316 µM): > 10000 nM
IC50 (second compound 0.1 µM): > 10000 nM
IC50 (second compound 0.316 µM): < 31.6 nM
IC50 (second compound 1 µM): < 31.6 nM
IC50 (second compound 3.16 µM): < 31.6 nM
IC50 (second compound 10 µM): < 31.6 nM
SMILES: COc1ncnc(C2CC2)c1-c1ncc2cnn(Cc3ccc(-c4nc(C(F)(F)F)cn4C(C)C)cc3)c2n1 + Cc1cnc(CNC(=O)c2c(=O)c3ccc(N4CCCN(C)CC4)nc3n3c2sc2ccccc23)cn1
viability, T/C [1]: 63.8%
viability, T/C [2]: 55.6%
viability, T/C [3]: 61.9%
viability, T/C [4]: 55.2%
viability, T/C [5]: 65.9%
viability, T/C [6]: 55.6%
viability, T/C [7]: 65.5%
viability, T/C [8]: 59.7%
viability, T/C [9]: 51.1%
viability, T/C [10]: 53.5%
viability, T/C [11]: 61.9%
viability, T/C [12]: 53.8%
viability, T/C [13]: 48.4%
viability, T/C [14]: 53.7%
viability, T/C [15]: 52.4%
viability, T/C [16]: 48.5%
viability, T/C [17]: 55.1%
viability, T/C [18]: 54.3%
viability, T/C [19]: 32.6%
viability, T/C [20]: 40.8%
viability, T/C [21]: 40.7%
viability, T/C [22]: 31.8%
viability, T/C [23]: 42.1%
viability, T/C [24]: 37.2%
viability, T/C [25]: 17.9%
viability, T/C [26]: 10.5%
viability, T/C [27]: 17.6%
viability, T/C [28]: 8.94%
viability, T/C [29]: 15.1%
viability, T/C [30]: 17.2%
viability, T/C [31]: 0.18%
viability, T/C [32]: 0.17%
viability, T/C [33]: 0.23%
viability, T/C [34]: 0.19%
viability, T/C [35]: 0.2%
viability, T/C [36]: 0.18%
